Experimental data reported in publication PMC9853918 (Journal of chemical information and modeling, 2022).

What was measured:
H11G11-BG βGUS = assay: βGUS; type: biochemical, uncultured bacterium; conditions: for efficacy: 0.5 nM GUS, 100 μM 4MUG, 1 hr at room temperature, negative = inhibition; for curve class (CC): dose-response curve class
(UniProt D5GU71) = assay: βGUS; type: biochemical, uncultured bacterium
Sequence of (UniProt D5GU71) (D5GU71 1-754): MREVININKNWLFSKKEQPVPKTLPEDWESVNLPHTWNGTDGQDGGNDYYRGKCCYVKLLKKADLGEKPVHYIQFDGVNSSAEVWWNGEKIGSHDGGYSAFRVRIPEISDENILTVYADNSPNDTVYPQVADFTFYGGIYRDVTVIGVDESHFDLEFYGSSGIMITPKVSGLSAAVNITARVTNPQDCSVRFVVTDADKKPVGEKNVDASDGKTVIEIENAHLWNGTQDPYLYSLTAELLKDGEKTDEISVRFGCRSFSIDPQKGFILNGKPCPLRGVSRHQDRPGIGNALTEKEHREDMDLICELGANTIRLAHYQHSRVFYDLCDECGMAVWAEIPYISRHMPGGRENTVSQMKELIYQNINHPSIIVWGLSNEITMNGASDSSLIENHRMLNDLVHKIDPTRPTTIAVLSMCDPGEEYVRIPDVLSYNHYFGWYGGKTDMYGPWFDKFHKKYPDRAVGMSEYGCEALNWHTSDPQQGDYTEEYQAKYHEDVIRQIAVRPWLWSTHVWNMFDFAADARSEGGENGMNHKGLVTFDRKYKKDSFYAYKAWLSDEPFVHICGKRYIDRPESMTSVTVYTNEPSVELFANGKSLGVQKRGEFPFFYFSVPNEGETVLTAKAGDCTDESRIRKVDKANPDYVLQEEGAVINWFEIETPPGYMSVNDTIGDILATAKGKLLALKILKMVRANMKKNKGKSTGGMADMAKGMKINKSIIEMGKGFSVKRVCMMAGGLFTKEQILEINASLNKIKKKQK

Row | SMILES | efficacy (H11G11-BG βGUS) [%] | curve class (CC) (H11G11-BG βGUS) | IC50 ((UniProt D5GU71)) [µM]
1 | c1ccc(Nc2cc3c(cn2)CN(CC2CC2)CCN3)cc1 [NCGC00411059, 4-(cyclopropylmethyl)-N-phenyl-2,3,4,5-tetrahydro-1H-pyrido[4,3-e][1,4]diazepin-8-amine] | −72 | −2.2 | –
2 | O=C(Nc1cccc(-c2nc3ncccc3o2)c1)c1ccc(-c2cccc(Cl)c2Cl)o1 [NCGC00099510, 5-(2,3-dichlorophenyl)-N-(3-(oxazolo[4,5-b]pyridine-2-yl)phenyl)furan-2-carboxamide] | −70 | −1.2 | 9.6
